Source: patent US12152019B2, “Arylalkyl pyrazole compounds as indoleamine 2,3-dioxygenase inhibitors” (Merck Sharp & Dohme LLC, priority 2018, dated 2024)

Tests used:
IDO1 [1] = molecular target: T1, IDO1 (Homo sapiens, UniProt P14902); assay: IDO1 Human Whole Blood Assay; assay type: cell-based; details: LPS and IFNγ 100 ng/mL, overnight (18 h), kynurenine by LC/MS/MS
Experimental: IDO1 Human Whole Blood Assay Compounds to be tested were serially diluted in ten 3-fold steps in DMSO starting from 10 mM. 3 μL of compound dilutions or DMSO alone were then dispensed from the dilution plate into a polypropylene 96-well assay plate containing 97 μL of RPMI using an Echo 555 acoustic liquid handler (Labcyte). LPS and IFNγ was prepared in RPMI to a 10× of final conc. (1000 ng/mL), final concentration is 100 ng/mL. […] 240 μL of blood was transferred to each of the wells of a v-bottom 96 well plate. 30 μL of compound was transferred from intermediate dilution plate, and incubated for 15 min. 30 μL from stimulants was then transferred to blood and mixed thoroughly. Plate was covered with breathable membrane and incubated at 37° C. for overnight (18 h). […] Plasma was diluted with RPMI in 1:1 ratio and proteins were precipitated out with two volume of Acetonitrile. The plates were centrifuged at 4000×G for 60 min. 20 μL of supernatant was carefully transferred to a 384 well plate contain 40 μL of 0.1% formic acid in water and analyzed by LC/MS/MS. LC/MS/MS analyses were performed using Thermo Fisher's LX4-TSQ Quantum Ultra system. This system consists of four Agilent binary high-performance liquid chromatography (HPLC) pumps and a TSQ Quantum Ultra triple quadrupole MS/MS instrument. For each sample, 5 μL were injected onto an Atlantis T3 column (2.1 mm×150 mm, 3 μm particle size) from Waters. The mobile phase gradient pumped at 0.8 mL/min was used to elute the analytes from the column at 25° C. The elution started at 0% B increasing linearly to 25% B at 6.5 min, holding at 25% for 1 min, re-equilibrating to 10 min. Mobile phase A consisted of 0.1% formic acid in water. Mobile phase B consisted of 0.1% of formic acid in acetonitrile. Data was acquired in positive mode using a HESI interface. The operational parameters for the TSQ Quantum Ultra instrument were a spray voltage of 4000 V, capillary temperature of 380° C., vaporizer temperature 400° C., shealth gas 60 arbitrary units, Aux gas 20 arbitrary units, tube lens 85 and collision gas 1.2 mTorr. SRM chromatograms of kynurenine (Q1: 209.2>Q3:94.0) and internal standard (Q1: 215.3>Q3:98.2) were collected for 90 sec. The peak area was integrated by Xcalibur Quan software. […] Compounds were titrated and IC50's were calculated by 4 parameter sigmoidal curve fitting formula.

IDO1 [2] = molecular target: T1, IDO1; assay: IDO1 Cellular Assay in HeLa Cells Stimulated with IFNγ; assay type: cell-based; details: HeLa Cell Potency, IC50 (nM)
[3] = read-out: Human Whole Blood Potency, IC50

T1 sequence (P14902 whole entry): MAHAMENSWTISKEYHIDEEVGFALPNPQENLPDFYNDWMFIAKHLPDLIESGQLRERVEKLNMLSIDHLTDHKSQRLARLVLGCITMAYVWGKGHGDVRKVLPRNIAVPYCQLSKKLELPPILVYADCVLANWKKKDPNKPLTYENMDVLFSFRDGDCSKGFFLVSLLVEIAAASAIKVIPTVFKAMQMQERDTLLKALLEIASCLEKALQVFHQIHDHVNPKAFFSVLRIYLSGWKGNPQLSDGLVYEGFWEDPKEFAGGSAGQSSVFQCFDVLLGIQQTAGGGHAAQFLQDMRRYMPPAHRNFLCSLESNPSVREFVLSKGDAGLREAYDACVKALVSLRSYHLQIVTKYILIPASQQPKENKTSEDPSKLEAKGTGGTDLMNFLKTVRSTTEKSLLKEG

Compound	IC50 (IDO1 [1]; [3])	IC50 (IDO1 [1]; Human Whole Blood Potency, IC50 (nM))	IC50 (IDO1 [2])
CC(=O)NC1CCN(C(=O)c2nn(CC[C@H]3CC[C@@H](Oc4ccccc4Cl)CC3)c3c2CCC3)CC1 [Example 70, N-[1-[1-[2-[4-(2-chlorophenoxy)cyclohexyl]ethyl]-5,6-dihydro-4H-cyclopenta[c]pyrazole-3-carbonyl]-4-piperidyl]acetamide]	161 nM		
CC(=O)NC1CCN(C(=O)c2nn(CC[C@H]3CC[C@@H](Oc4ncccc4C)CC3)cc2C2CC2)CC1 [Example 74, N-(1-(4-cyclopropyl-1-(2-((1s,4s)-4-((3-methylpyridin-2-yl)oxy)cyclohexyl)ethyl)-1H-pyrazole-3-carbonyl)piperidin-4-yl)acetamide]	178 nM		
CC(=O)NC1CCN(C(=O)c2nn(C[C@@H]3C[C@@H](Oc4ccc(Cl)cn4)CCO3)c3c2CC(F)(F)CC3)CC1 [Example 77, 6-{3-[4-(acetylamino)piperidine-1-carbonyl]-5,5-difluoro-4,5,6,7-tetrahydro-1H-indazol-1-yl}-1,5-anhydro-3-O-(5-chloropyridin-2-yl)-2,4,6-trideoxy-D-erythro-hexitol]	136 nM		
Cc1cccnc1O[C@H]1CC[C@@H](CCn2nc(C(=O)N3CC[C@H](O)[C@H](F)C3)c3c2C[C@H]2C[C@@H]32)CC1 [Example 83, [(3R,4S)-3-fluoro-4-hydroxypiperidin-1-yl] [(3bR,4aR)-1-(2-{cis-4-[(3-methylpyridin-2-yl)oxy]cyclohexyl}ethyl)-3b,4,4a,5-tetrahydro-1H-cyclopropa[3,4]cyclopenta [1,2-c]pyrazol-3-yl] methanone]	110 nM		
Cc1cccnc1O[C@H]1CC[C@@H](CCn2nc(C(=O)N3CCC(O)CC3)c3c2C[C@H](C(F)F)CC3)CC1 [Example 87, [(6R)-6-(difluoromethyl)-1-(2-{cis-4-[(3-methylpyridin-2-yl)oxy]cyclohexyl}ethyl)-4,5,6,7-tetrahydro-1H-indazol-3-yl](4-hydroxypiperidin-1-yl)methanone]	736 nM		
CC(=O)NC1CCN(C(=O)c2nn(CCN3CCN(c4cccc(C)c4C)CC3)c3c2[C@@H]2C[C@@H]2C3)CC1 [Example 100, N-(1-((3bR,4aR)-1-(2-(4-(2,3-dimethylphenyl)piperazin-1-yl)ethyl)-3b,4,4a,5-tetrahydro-1H-cyclopropa[3.4]cyclopenta[1,2-c]pyrazole-3-carbonyl)piperidin-4-yl)acetamide]	247 nM		
CC(=O)NC1CCN(C(=O)c2nn(CCN3CCN(c4cccc(Cl)c4C)CC3)c3c2[C@@H]2C[C@@H]2C3)CC1 [Example 102, N-(1-((3bR,4aR)-1-(2-(4-(3-chloro-2-methylphenyl)piperazin-1-yl)ethyl)-3b,4,4a,5-tetrahydro-1H-cyclopropa[3,4]cyclopenta[1,2-c]pyrazole-3-carbonyl)piperidin-4-yl)acetamide]	261 nM		
Cc1cccc(N2CCC(CCn3nc(C(=O)N4CCCC4)c4ccccc43)CC2)c1C [Example 103]		1030 nM	15.4 nM
